Earlier results in US11503831B2, “Arthropoda repellent composition” (SanderStrothmann GmbH, priority 2019, dated 2022).

Conditions: in vivo

## CCN(CC)C(=O)c1cccc(C)c1 [N,N-diethyl toluamide, N,N′-diethyl toluamide]
  Share of topically applied dose absorbed by the skin: approximately 50%
  Time to peak plasma levels: 1 h
